This assay concerns the target Full length human TBK1 (Homo sapiens (Human), UniProt Q9UHD2). Description: Inhibition of TBK1 Enzyme (Example A). The conditions noted are these: -log(IC50), IC50 molar, 3 nM TBK1, 25 μM ATP, 60 min RT; for IC50: read-out: TBK1 Inhibition (pIC50) (converted). The class given is biochemical. The gist of the method:
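Full-length N-His human TBK1 from Sf9 baculovirus was tested with 11-point 2.5-fold dilutions (1% DMSO) in Hepes pH 7.4, MgCl2, EDTA, Brij, DTT. After 60 min RT and EDTA quench, microfluidic conversion was fitted and reported as pIC50.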

Molecules are shown by their SMILES.

Chain of Full length human TBK1 (Q9UHD2 whole entry): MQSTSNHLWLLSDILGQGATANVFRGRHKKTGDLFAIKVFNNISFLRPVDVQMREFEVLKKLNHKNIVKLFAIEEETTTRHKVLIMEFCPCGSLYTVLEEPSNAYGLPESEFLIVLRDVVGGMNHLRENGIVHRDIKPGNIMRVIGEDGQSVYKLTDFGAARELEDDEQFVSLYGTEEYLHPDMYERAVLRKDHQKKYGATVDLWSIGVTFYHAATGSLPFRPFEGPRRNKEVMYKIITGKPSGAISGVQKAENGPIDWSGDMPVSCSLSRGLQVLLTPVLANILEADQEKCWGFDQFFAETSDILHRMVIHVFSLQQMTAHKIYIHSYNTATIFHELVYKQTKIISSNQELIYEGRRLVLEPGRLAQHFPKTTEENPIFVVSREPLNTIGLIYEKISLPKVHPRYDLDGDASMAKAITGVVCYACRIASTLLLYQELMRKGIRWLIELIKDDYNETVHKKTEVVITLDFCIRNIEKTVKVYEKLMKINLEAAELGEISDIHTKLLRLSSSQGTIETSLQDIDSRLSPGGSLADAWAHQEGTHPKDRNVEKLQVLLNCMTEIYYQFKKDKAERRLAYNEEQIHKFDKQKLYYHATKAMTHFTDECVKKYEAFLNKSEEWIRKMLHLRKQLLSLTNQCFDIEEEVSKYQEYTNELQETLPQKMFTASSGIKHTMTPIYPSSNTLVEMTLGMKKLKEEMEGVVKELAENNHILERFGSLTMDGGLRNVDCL

Regarding `N#Cc1ncc(-c2cnc(NC(=O)C3CC3)cn2)cc1NCC(=O)N1CCO[C@@H]1C(F)(F)F` [Example 95, (R)-N-(5-(6-cyano-5-((2-oxo-2-(2-(trifluoromethyl)oxazolidin-3-yl)ethyl)amino)pyridin-3-yl)pyrazin-2-yl)cyclopropanecarboxamide], the IC50 was 0.631 µM.

As to `CC1(O)CCN(C(=O)CNc2cc(-c3cnc(NC(=O)C4CC4)cn3)ccc2C#N)C1` (centres unmarked) [Example 132, N-(5-(4-cyano-3-((2-(3-hydroxy-3-methylpyrrolidin-1-yl)-2-oxoethyl)amino)phenyl)pyrazin-2-yl)cyclopropanecarboxamide], the “TBK1 Inhibition (pIC50)” value was determined as 6.2. On the same count and under the same terms, with `CC(O)CN(CC(F)(F)F)C(=O)CNc1cc(-c2cnc(NC(=O)C3CC3)cn2)cnc1C#N` (centres unmarked) [Example 110, N-(5-(6-cyano-5-((2-((2-hydroxypropyl)(2,2,2-trifluoroethyl)amino)-2-oxoethyl)amino)pyridin-3-yl)pyrazin-2-yl)cyclopropanecarboxamide] the figure was 7.5.

Turning to `CCC(Nc1cc(-c2cnc(NC(=O)C3CC3)cn2)ccc1C#N)C(=O)N(C)CCO` (centres unmarked) [Example 29, N-(5-(4-cyano-3-((1-((2-hydroxyethyl)(methyl)amino)-1-oxobutan-2-yl)amino)phenyl)pyrazin-2-yl)cyclopropanecarboxamide], the “TBK1 Inhibition (pIC50)” value is on record as 7.8.

In the case of `CN(C)C(=O)C(CC#N)Nc1cc(-c2cnc(NC(=O)C3CC3)cn2)cnc1C#N` (centres unmarked) [Example 44, N-(5-(6-cyano-5-((3-cyano-1-(dimethylamino)-1-oxopropan-2-yl)amino)pyridin-3-yl)pyrazin-2-yl)cyclopropanecarboxamide], the “TBK1 Inhibition (pIC50)” value is 6.2.

Take `CN(C)C(=O)[C@H](CO)Nc1cc(-c2cnc(NC(=O)C3CC3)cn2)ccc1C#N` [Example 136, (S)-N-(5-(4-cyano-3-((1-(dimethylamino)-3-hydroxy-1-oxopropan-2-yl)amino)phenyl)pyrazin-2-yl)cyclopropanecarboxamide]: the “TBK1 Inhibition (pIC50)” value stood at 7.6. On the same count and under the same terms, with `COCCNC(=O)[C@H](C)Nc1cc(-c2cnc(NC(=O)C3CC3)cn2)ccc1C#N` [Example 15, (S)-N-(5-(4-cyano-3-((1-((2-methoxyethyl)amino)-1-oxopropan-2-yl)amino)phenyl)pyrazin-2-yl)cyclopropanecarboxamide] the figure was 5.8; with `CC[C@@H](Nc1cc(-c2cnc(NC(=O)C3CC3)cn2)cnc1C#N)C(=O)N(C)C` [Example 31, (R)-N-(5-(6-cyano-5-((1-(dimethylamino)-1-oxobutan-2-yl)amino)pyridin-3-yl)pyrazin-2-yl)cyclopropanecarboxamide], 6.3.

In the case of `CC[C@H](Nc1cc(-c2cnc(NC(=O)C3CC(C)(O)C3)cn2)cnc1C#N)C(=O)N(C)C` (stereo partly drawn) [Example 147, (S)-N-(5-(6-cyano-5-((1-(dimethylamino)-1-oxobutan-2-yl)amino)pyridin-3-yl)pyrazin-2-yl)-3-hydroxy-3-methylcyclobutanecarboxamide], the IC50 was 0.398 µM. As for `N#Cc1ncc(-c2cnc(NC(=O)C3CC3)cn2)cc1NCC(=O)N1CCO[C@H]1C(F)(F)F` [Example 96, (S)-N-(5-(6-cyano-5-((2-oxo-2-(2-(trifluoromethyl)oxazolidin-3-yl)ethyl)amino)pyridin-3-yl)pyrazin-2-yl)cyclopropanecarboxamide], the IC50 was 0.0158 µM. As to `C[C@H](Nc1cc(-c2cnc(NC(=O)C3CC3)cn2)cnc1C#N)C(=O)N(C)CCF` [Example 54, (S)-N-(5-(6-cyano-5-((1-((2-fluoroethyl)(methyl)amino)-1-oxopropan-2-yl)amino)pyridin-3-yl)pyrazin-2-yl)cyclopropanecarboxamide], the “TBK1 Inhibition (pIC50)” value is listed as 8.0. Same read-out and setting: with `C[C@H](Nc1cc(-c2cnc(NC(=O)C3CC3)cn2)cnc1C#N)C(=O)N(C)CC1CC1` [Example 73, (S)-N-(5-(6-cyano-5-((1-((cyclopropylmethyl)(methyl)amino)-1-oxopropan-2-yl)amino)pyridin-3-yl)pyrazin-2-yl)cyclopropanecarboxamide] the figure was 7.0; with `CCC(Nc1cc(-c2cnc(NC(=O)C3CC3)cn2)ccc1C#N)C(=O)N(C)C` (centres unmarked) [Example 6, N-(5-(4-cyano-3-((1-(dimethylamino)-1-oxobutan-2-yl)amino)phenyl)pyrazin-2-yl)cyclopropanecarboxamide], 8.1; with `CC[C@H](Nc1cc(-c2cnc(NC(=O)C3CC3)cn2)ccc1C#N)C(=O)N(C)C` [Example 23, (S)-N-(5-(4-cyano-3-((1-(dimethylamino)-1-oxobutan-2-yl)amino)phenyl)pyrazin-2-yl)cyclopropanecarboxamide], 7.7. On the same count and under the same terms, for `COCC[C@H](Nc1cc(-c2cnc(NC(=O)C3CC3)cn2)cnc1C#N)C(=O)N(C)CCO` [Example 52, (S)-N-(5-(6-cyano-5-((1-((2-hydroxyethyl)(methyl)amino)-4-methoxy-1-oxobutan-2-yl)amino)pyridin-3-yl)pyrazin-2-yl)cyclopropanecarboxamide] the value was 6.5; for `C[C@H](Nc1cc(-c2cnc(NC(=O)C3CC3)cn2)cnc1C#N)C(=O)N(CC#N)CCO` [Example 93, (S)-N-(5-(6-cyano-5-((1-((cyanomethyl)(2-hydroxyethyl)amino)-1-oxopropan-2-yl)amino)pyridin-3-yl)pyrazin-2-yl)cyclopropanecarboxamide], 6.8. Consider `CC(Nc1cc(-c2cnc(NC(=O)C3CC3)cn2)cnc1C#N)C(=O)N(C)CC#N` (centres unmarked) [Example 43, N-(5-(6-cyano-5-((1-((cyanomethyl)(methyl)amino)-1-oxopropan-2-yl)amino)pyridin-3-yl)pyrazin-2-yl)cyclopropanecarboxamide], for which the “TBK1 Inhibition (pIC50)” value stood at 7.7. Same read-out and setting: for `COC1CN(C(=O)[C@H](C)Nc2cc(-c3cnc(NC(=O)C4CC4)cn3)ccc2C#N)C1` [Example 16, (S)-N-(5-(4-cyano-3-((1-(3-methoxyazetidin-1-yl)-1-oxopropan-2-yl)amino)phenyl)pyrazin-2-yl)cyclopropanecarboxamide] the value was 6.3; for `COCCN1CCN(C(=O)CNc2cc(-c3cnc(NC(=O)C4CC4)cn3)cnc2C#N)CC1` [Example 98, N-(5-(6-cyano-5-((2-(4-(2-methoxyethyl)piperazin-1-yl)-2-oxoethyl)amino)pyridin-3-yl)pyrazin-2-yl)cyclopropanecarboxamide], 5.1; for `COCC[C@H](Nc1cc(-c2cnc(NC(=O)C3CC3)cn2)cnc1C#N)C(=O)N(C)C` [Example 131, (S)-N-(5-(6-cyano-5-((1-(dimethylamino)-4-methoxy-1-oxobutan-2-yl)amino)pyridin-3-yl)pyrazin-2-yl)cyclopropanecarboxamide], 7.1. The same measure, in the same setting: for `N#Cc1ncc(-c2cnc(NC(=O)C3CC3)cn2)cc1NCC(=O)N1CCOC(C(F)(F)F)C1` (centres unmarked) [Example 100, N-(5-(6-cyano-5-((2-oxo-2-(2-(trifluoromethyl)morpholino)ethyl)amino)pyridin-3-yl)pyrazin-2-yl)cyclopropanecarboxamide] the value was 6.5; for `N#Cc1ncc(-c2cnc(NC(=O)C3CC3)cn2)cc1NCC(=O)N1CCC(C#N)C1` (centres unmarked) [Example 102, N-(5-(6-cyano-5-((2-(3-cyanopyrrolidin-1-yl)-2-oxoethyl)amino)pyridin-3-yl)pyrazin-2-yl)cyclopropanecarboxamide], 6.6.

`C[C@H](Nc1cc(-c2cnc(NC(=O)C3CC3)cn2)cnc1C#N)C(=O)NCC(F)(F)F` [Example 116, (S)-N-(5-(6-cyano-5-((1-oxo-1-((2,2,2-trifluoroethyl)amino)propan-2-yl)amino)pyridin-3-yl)pyrazin-2-yl)cyclopropanecarboxamide]: the “TBK1 Inhibition (pIC50)” value is reported as 7.3. Still for that read-out and setting: for `CC(Nc1cc(-c2cnc(NC(=O)C3CC3)cn2)ccc1C#N)C(=O)N(C)C` (centres unmarked) [Example 3, N-(5-(4-cyano-3-((1-(dimethylamino)-1-oxopropan-2-yl)amino)phenyl)pyrazin-2-yl)cyclopropanecarboxamide] the value was 7.9; for `CN(CC(F)(F)F)C(=O)CNc1cc(-c2cnc(NC(=O)C3CC3)cn2)ccc1C#N` [Example 126, N-(5-(4-cyano-3-((2-(methyl(2,2,2-trifluoroethyl)amino)-2-oxoethyl)amino)phenyl)pyrazin-2-yl)cyclopropanecarboxamide], 7.6; for `CC1CC1C(=O)Nc1cnc(-c2cnc(C#N)c(NCC(=O)N(C)C)c2)cn1` (centres unmarked) [Example 145, N-(5-(6-cyano-5-((2-(dimethylamino)-2-oxoethyl)amino)pyridin-3-yl)pyrazin-2-yl)-2-methylcyclopropanecarboxamide], 7.1.

Take `C[C@H](Nc1cc(-c2cnc(NC(=O)C3CC3)cn2)cnc1C#N)C(=O)N(C)CC#N` [Example 50, (S)-N-(5-(6-cyano-5-((1-((cyanomethyl)(methyl)amino)-1-oxopropan-2-yl)amino)pyridin-3-yl)pyrazin-2-yl)cyclopropanecarboxamide]: the “TBK1 Inhibition (pIC50)” value was found to be 7.9. For the molecule `C[C@H](Nc1cc(-c2cnc(NC(=O)C3CC3)cn2)cnc1C#N)C(=O)N1CCOC[C@@H]1C#N` [Example 81, N-(5-(6-cyano-5-(((S)-1-((S)-3-cyanomorpholino)-1-oxopropan-2-yl)amino)pyridin-3-yl)pyrazin-2-yl)cyclopropanecarboxamide], the “TBK1 Inhibition (pIC50)” value was found to be 7.8.

Turning to `CC(C)(O)CN(CC(F)(F)F)C(=O)CNc1cc(-c2cnc(NC(=O)C3CC3)cn2)cnc1C#N` [Example 111, N-(5-(6-cyano-5-((2-((2-hydroxy-2-methylpropyl)(2,2,2-trifluoroethyl)amino)-2-oxoethyl)amino)pyridin-3-yl)pyrazin-2-yl)cyclopropanecarboxamide], the “TBK1 Inhibition (pIC50)” value is 6.6.

These data come from US9994547B2, “Heteroarylamide inhibitors of TBK1” (Takeda Pharmaceutical Company Limited, priority 2014, dated 2018).
